Counter-ions that a name gives are not always drawn.

Assay [1] has as its target T1, IKKε (Homo sapiens, UniProt Q14164).
T1 sequence (Q14164 1-716): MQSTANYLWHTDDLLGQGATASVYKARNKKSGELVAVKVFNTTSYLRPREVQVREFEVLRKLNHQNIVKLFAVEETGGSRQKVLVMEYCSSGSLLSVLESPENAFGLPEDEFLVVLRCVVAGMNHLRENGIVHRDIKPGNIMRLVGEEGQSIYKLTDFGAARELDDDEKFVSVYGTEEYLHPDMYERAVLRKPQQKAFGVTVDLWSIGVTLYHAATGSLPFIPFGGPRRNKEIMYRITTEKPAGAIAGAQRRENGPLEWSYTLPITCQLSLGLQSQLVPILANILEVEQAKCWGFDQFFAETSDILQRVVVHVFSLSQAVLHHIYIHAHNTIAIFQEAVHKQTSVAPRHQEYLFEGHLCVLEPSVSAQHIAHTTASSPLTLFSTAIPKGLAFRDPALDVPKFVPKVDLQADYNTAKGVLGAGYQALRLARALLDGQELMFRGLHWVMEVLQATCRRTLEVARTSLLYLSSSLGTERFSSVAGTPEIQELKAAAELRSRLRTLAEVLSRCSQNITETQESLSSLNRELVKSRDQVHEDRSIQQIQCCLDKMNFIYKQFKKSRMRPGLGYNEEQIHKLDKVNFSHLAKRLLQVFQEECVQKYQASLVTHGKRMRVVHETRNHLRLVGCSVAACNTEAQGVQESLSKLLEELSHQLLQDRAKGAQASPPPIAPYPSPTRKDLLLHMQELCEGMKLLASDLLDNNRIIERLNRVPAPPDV
Kind of assay: IKKe Biochemical Assay. As to conditions: read-out: IKKε IC50. Summed up: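 Activity was measured as mobility-shift separation of phosphorylated from unphosphorylated substrate on a LabChip EZ Reader. Compound was titrated from 30 uM final in 10 points, 1:4 steps, with 1% DMSO, and enzyme plus substrate reacted 90 min at 25° C before stop buffer. Control wells held 10 uM staurosporine.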

The target of assay [2] is T2, TBK1 (Homo sapiens, UniProt Q9UHD2).
T2 sequence (Q9UHD2 1-729): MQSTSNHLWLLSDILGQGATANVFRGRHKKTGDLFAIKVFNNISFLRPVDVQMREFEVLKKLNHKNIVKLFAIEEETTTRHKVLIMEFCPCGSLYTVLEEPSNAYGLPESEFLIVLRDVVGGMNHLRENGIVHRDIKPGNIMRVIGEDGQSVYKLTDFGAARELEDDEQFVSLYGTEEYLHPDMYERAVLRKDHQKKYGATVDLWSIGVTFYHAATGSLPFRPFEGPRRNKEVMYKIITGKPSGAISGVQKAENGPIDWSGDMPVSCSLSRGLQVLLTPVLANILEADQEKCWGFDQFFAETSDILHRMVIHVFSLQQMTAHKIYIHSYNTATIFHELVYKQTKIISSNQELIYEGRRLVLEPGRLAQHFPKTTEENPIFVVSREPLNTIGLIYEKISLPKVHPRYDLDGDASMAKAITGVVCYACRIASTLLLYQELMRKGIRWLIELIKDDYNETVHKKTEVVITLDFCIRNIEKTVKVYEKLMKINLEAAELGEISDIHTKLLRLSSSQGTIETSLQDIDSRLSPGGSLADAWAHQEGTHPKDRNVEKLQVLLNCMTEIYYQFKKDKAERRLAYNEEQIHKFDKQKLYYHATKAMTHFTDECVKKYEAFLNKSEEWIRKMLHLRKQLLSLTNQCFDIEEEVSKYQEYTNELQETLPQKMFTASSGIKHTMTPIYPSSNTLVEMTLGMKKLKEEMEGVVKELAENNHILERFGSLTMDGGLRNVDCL
Put plainly: TBK Biochemical Assay. Conditions: read-out: TBK1 IC50. Summed up:
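Caliper LabChip mobility-shift readout of substrate and product after 90 min of TBK1 reaction at 25° C and stop-buffer addition. Compounds tested in 1:4 serial dilution over 10 points from 30 uM final at 1% DMSO; staurosporine 10 uM final defines full inhibition.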

As usually defined, the IC50 is the concentration that inhibits the measured activity by half. Consider `COc1cc(C(=O)N2CCC3(CCC3)C2)ccc1-c1cc2nccc(-c3ccc(OC4CCOCC4)c(C#N)c3)c2o1` [Compound 114, 5-{2-[4-(6-Aza-spiro[3.4]octane-6-carbonyl)-2-methoxy-phenyl]-furo[3,2-b]pyridin-7-yl}-2-(tetrahydro-pyran-4-yloxy)-benzonitrile], for which the concentration for half-maximal inhibition (IC50) in assay [1] and in assay [2] was less than 100 nM each time.
For `COc1cc(C(=O)N(C)C)ccc1-c1cc2nccc(-c3ccc(O[C@@H]4CCNC4)c(C#N)c3)c2o1` [Compound 115, 4-{7-[3-Cyano-4-((R)-pyrrolidin-3-yloxy)-phenyl]-furo[3,2-b]pyridin-2-yl}-3-methoxy-N,N-dimethyl-benzamide], the half-inhibitory concentration (IC50) in assay [1] and in assay [2] was less than 100 nM throughout.
As to `COc1cc(C(=O)N(C)C)ccc1-c1cc2nccc(-c3ccc(O[C@H]4CCNC4)c(C#N)c3)c2o1` [Compound 121, 4-{7-[3-Cyano-4-((S)-pyrrolidin-3-yloxy)-phenyl]-furo[3,2-b]pyridin-2-yl}-3-methoxy-N,N-dimethyl-benzamide], the IC50 in assay [1] and in assay [2] was less than 100 nM throughout.
For `N#Cc1cc(-c2ccnc3cc(-c4ccc(N)cc4)oc23)ccc1OC1CCOCC1` [Compound 126], the half-inhibitory concentration (IC50) in assay [1] and in assay [2] was less than 100 nM in each case.
`COc1cc(C(=O)N(C)C)ccc1-c1cc2nccc(-c3ccc(OC4CNC4)c(C#N)c3)c2o1` [Compound 128, 4-{7-[4-(Azetidin-3-yloxy)-3-cyano-phenyl]-furo[3,2-b]pyridin-2-yl}-3-methoxy-N,N-dimethyl-benzamide]: the IC50 in assay [1] and in assay [2] was less than 100 nM throughout.
As for `COc1cc(C(=O)NC2CCOCC2F)ccc1-c1cc2nccc(-c3ccc(NC4CCOCC4)c(C#N)c3)c2o1` (stereo not drawn) [Compound 132, 4-{7-[3-Cyano-4-(tetrahydro-pyran-4-ylamino)-phenyl]-furo[3,2-b]pyridin-2-yl}-N-(3-fluoro-tetrahydro-pyran-4-yl)-3-methoxy-benzamide], the concentration for half-maximal inhibition (IC50) in assay [1] and in assay [2] was less than 100 nM in each case.
As for `COc1cc(C(=O)N2CC3CCCC3C2)ccc1-c1cc2nccc(-c3ccc(NC4CCOCC4)c(C#N)c3)c2o1` (stereo not drawn) [Compound 137, 5-{2-[4-(Hexahydro-cyclopenta[c]pyrrole-2-carbonyl)-2-methoxy-phenyl]-furo[3,2-b]pyridin-7-yl}-2-(tetrahydro-pyran-4-ylamino)-benzonitrile], the half-maximal inhibitory concentration (IC50) in assay [1] and in assay [2] was less than 100 nM throughout.
As for `COc1cc(C(=O)N(C)C)ccc1-c1cc2nccc(-c3ccc(O[C@H]4CCCNC4)c(C#N)c3)c2o1` [Compound 142, 4-{7-[3-Cyano-4-((S)-piperidin-3-yloxy)-phenyl]-furo[3,2-b]pyridin-2-yl}-3-methoxy-N,N-dimethyl-benzamide], the IC50 in assay [1] and in assay [2] was less than 100 nM in each case.
For `COc1cc(C(=O)N(C)C)ccc1-c1cc2nccc(-c3ccc(OC4CCN(C(C)=O)C4)c(C#N)c3)c2o1` (stereo not drawn) [Compound 144, 4-{7-[4-(1-Acetyl-pyrrolidin-3-yloxy)-3-cyano-phenyl]-furo[3,2-b]pyridin-2-yl}-3-methoxy-N,N-dimethyl-benzamide], the IC50 in assay [1] and in assay [2] was less than 100 nM throughout.
As for `COc1cc(C(=O)NC2CCN(C(=O)OC(C)(C)C)C2)ccc1-c1cc2nccc(-c3ccc(NC4CCOCC4)c(C#N)c3)c2o1` (stereo not drawn) [Compound 147, 3-(4-{7-[3-Cyano-4-(tetrahydro-pyran-4-ylamino)-phenyl]-furo[3,2-b]pyridin-2-yl}-3-methoxy-benzoylamino)-pyrrolidine-1-carboxylic acid tert-butyl ester], the concentration for half-maximal inhibition (IC50) in assay [1] and in assay [2] was less than 100 nM throughout.
Regarding `COc1cc(C(=O)NCC2CCCCC2(F)F)ccc1-c1cc2nccc(-c3ccc(OC4CCOCC4)c(C#N)c3)c2o1` (stereo not drawn) [Compound 151, 4-{7-[3-Cyano-4-(tetrahydro-pyran-4-yloxy)-phenyl]-furo[3,2-b]pyridin-2-yl}-N-(2,2-difluoro-cyclohexylmethyl)-3-methoxy-benzamide], the IC50 in assay [1] and in assay [2] was less than 100 nM throughout.
In the case of `COc1cc(C(=O)N(C)C)ccc1-c1cc2nccc(-c3ccc(OCC4CCNC4)c(C#N)c3)c2o1` (stereo not drawn) [Compound 152, 4-{7-[3-Cyano-4-(pyrrolidin-3-ylmethoxy)-phenyl]-furo[3,2-b]pyridin-2-yl}-3-methoxy-N,N-dimethyl-benzamide hydrochloride], the concentration for half-maximal inhibition (IC50) in assay [1] and in assay [2] was less than 100 nM each time.
In the case of `COc1cc(C(=O)N(C)C)ccc1-c1cc2nccc(-c3ccc(OC4CCN(C(C)C)C4)c(C#N)c3)c2o1` (stereo not drawn) [Compound 157, 4-{7-[3-Cyano-4-(1-isopropyl-pyrrolidin-3-yloxy)-phenyl]-furo[3,2-b]pyridin-2-yl}-3-methoxy-N,N-dimethyl-benzamide], the 50% inhibitory concentration (IC50) was less than 100 nM in assay [1] and 100 to 1000 nM in assay [2].
`N#Cc1cc(-c2ccnc3cc(-c4ccc(C(=O)O)cc4)oc23)ccc1OC1CC(CO)(CCl)C1` (stereo not drawn) [Compound 162]: the concentration for half-maximal inhibition (IC50) was less than 100 nM in assay [1] and 100 to 1000 nM in assay [2].
Take `COc1cc(C(=O)N(C)C)ccc1-c1cc2nccc(-c3ccc(NC4CCCOC4)c(C#N)c3)c2o1` (stereo not drawn) [Compound 164]: the IC50 in assay [1] and in assay [2] was 100 to 1000 nM in each case.
As to `COc1cc(C(=O)N(C)C)ccc1-c1cc2nccc(-c3ccc(OCC4CNC4)c(C#N)c3)c2o1` [Compound 165, 4-{7-[4-(Azetidin-3-ylmethoxy)-3-cyano-phenyl]-furo[3,2-b]pyridin-2-yl}-3-methoxy-N,N-dimethyl-benzamide], the half-inhibitory concentration (IC50) in assay [1] and in assay [2] was 100 to 1000 nM throughout.
As for `N#Cc1cc(-c2ccnc3cc(-c4ccc(C(=O)O)cc4)oc23)ccc1Oc1ccccc1F` [Compound 169, 4-{7-[3-Cyano-4-(2-fluoro-phenoxy)-phenyl]-furo[3,2-b]pyridin-2-yl}-benzoic acid], the 50% inhibitory concentration (IC50) in assay [1] and in assay [2] was 100 to 1000 nM throughout.
Take `CN(C)C(=O)c1ccc(-c2cc3nccc(-c4ccc(N5CC[C@@H](N(C)C)C5)c(C#N)c4)c3o2)cc1` [Compound 172, 4-{7-[3-Cyano-4-((R)-3-dimethylamino-pyrrolidin-1-yl)-phenyl]-furo[3,2-b]pyridin-2-yl}-N,N-dimethyl-benzamide]: the concentration for half-maximal inhibition (IC50) in assay [1] and in assay [2] was 100 to 1000 nM each time.
Take `CN(C)C(=O)c1ccc(-c2cc3nccc(-c4ccc(O[C@H]5CCCOC5)c(C#N)c4)c3o2)cc1` [Compound 174, 4-(7-{3-Cyano-4-[(S)-(tetrahydro-pyran-3-yl)oxy]-phenyl}-furo[3,2-b]pyridin-2-yl)-N,N-dimethyl-benzamide]: the IC50 in assay [1] and in assay [2] was 100 to 1000 nM throughout.
For `CN(C)C(=O)c1ccc(-c2cc3nccc(-c4ccc(O)c(C#N)c4)c3o2)cc1` [Compound 175, 4-[7-(3-Cyano-4-hydroxy-phenyl)-furo[3,2-b]pyridin-2-yl]-N,N-dimethyl-benzamide], the IC50 in assay [1] and in assay [2] was 100 to 1000 nM each time.
On to `CN(C)C(=O)c1ccc(-c2cc3nccc(-c4ccc(Oc5cccc(F)c5)c(C#N)c4)c3o2)cc1` [Compound 176, 4-{7-[3-Cyano-4-(3-fluoro-phenoxy)-phenyl]-furo[3,2-b]pyridin-2-yl}-N,N-dimethyl-benzamide], for which the half-maximal inhibitory concentration (IC50) in assay [1] and in assay [2] was 100 to 1000 nM in each case.

Values taken from US10428080B2, “TBK/IKK inhibitor compounds and uses thereof” (Merck Patent GmbH, priority 2015, dated 2019).
